Our source for the inhibition values is paper PMC7736581, “Activation of the IRE1 RNase through remodeling of the kinase front pocket by ATP-competitive ligands” (Nature Communications, 2020).

Some targets named below: TYK2 (Homo sapiens, UniProt P29597); Met (Homo sapiens, UniProt P08581); CDK2/cyclinA (Homo sapiens, UniProt P24941); PRKAA1 (Homo sapiens, UniProt Q13131); EphA7 (Homo sapiens, UniProt Q15375); ROCK1 (Homo sapiens, UniProt Q13464).
What all share (experiment): biochemical
What all share (design): Invitrogen kinase panel: Z'Lyte activity (ATP at Km) or LanthaScreen competitive ATP-site binding, percent inhibition

The next assay has as its target T1, p70S6K (Homo sapiens, UniProt P23443).
T1 construct: gene RPS6KB1

Another assay concerns the target T2, B-Raf (Homo sapiens, UniProt P15056).
T2 construct: gene BRAF

The target of a further assay is T3, NEK1 (Homo sapiens, UniProt Q96PY6).
T3 sequence (Q96PY6 1-1258): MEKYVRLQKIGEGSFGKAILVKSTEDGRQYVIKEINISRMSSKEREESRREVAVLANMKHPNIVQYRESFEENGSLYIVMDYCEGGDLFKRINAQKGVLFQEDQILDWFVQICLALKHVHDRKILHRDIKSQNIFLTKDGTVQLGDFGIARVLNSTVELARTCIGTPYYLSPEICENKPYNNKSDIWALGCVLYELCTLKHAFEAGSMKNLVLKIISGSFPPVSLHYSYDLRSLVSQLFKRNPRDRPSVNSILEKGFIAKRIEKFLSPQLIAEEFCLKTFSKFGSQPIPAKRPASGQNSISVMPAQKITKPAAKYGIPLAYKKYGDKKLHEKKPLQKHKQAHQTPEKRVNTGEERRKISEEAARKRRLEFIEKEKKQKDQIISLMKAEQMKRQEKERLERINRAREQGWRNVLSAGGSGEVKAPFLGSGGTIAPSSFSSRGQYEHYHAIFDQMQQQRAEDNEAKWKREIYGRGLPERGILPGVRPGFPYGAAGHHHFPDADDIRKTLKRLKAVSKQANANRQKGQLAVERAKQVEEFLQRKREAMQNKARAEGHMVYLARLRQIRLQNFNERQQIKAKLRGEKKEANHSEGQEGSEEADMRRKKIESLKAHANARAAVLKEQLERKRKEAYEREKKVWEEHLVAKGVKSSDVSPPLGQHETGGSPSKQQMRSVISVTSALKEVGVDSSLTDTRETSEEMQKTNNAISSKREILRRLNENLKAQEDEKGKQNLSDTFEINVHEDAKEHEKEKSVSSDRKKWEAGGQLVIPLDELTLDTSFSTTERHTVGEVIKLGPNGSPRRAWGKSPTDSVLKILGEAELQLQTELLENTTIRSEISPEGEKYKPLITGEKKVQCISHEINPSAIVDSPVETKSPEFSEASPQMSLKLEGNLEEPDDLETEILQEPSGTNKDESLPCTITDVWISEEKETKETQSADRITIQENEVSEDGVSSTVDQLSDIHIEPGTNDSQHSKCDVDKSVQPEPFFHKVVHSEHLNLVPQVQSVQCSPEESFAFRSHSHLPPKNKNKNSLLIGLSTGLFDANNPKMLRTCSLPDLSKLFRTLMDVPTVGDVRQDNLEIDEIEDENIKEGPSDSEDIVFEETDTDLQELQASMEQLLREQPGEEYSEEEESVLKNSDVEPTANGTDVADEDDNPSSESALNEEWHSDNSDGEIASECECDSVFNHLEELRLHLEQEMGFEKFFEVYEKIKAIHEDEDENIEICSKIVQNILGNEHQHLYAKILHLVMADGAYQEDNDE

A further assay has as its target T4, PKA (Homo sapiens, UniProt P17612).
T4 construct: gene PRKACA

Another assay deals with T5, IRAK4 (Homo sapiens, UniProt Q9NWZ3).
T5 sequence (Q9NWZ3 1-460): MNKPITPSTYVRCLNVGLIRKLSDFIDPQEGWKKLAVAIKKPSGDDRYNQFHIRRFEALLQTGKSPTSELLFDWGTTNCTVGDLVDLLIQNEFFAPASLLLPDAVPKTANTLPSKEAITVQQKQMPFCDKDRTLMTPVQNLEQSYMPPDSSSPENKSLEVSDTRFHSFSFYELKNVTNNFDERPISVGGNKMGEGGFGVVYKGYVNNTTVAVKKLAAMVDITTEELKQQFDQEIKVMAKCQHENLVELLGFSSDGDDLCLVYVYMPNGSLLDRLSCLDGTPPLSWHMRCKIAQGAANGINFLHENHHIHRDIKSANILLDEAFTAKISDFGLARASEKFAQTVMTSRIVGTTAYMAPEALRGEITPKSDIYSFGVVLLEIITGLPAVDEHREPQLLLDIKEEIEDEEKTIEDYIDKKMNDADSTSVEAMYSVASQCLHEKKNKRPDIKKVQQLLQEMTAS

Sequence of TYK2 (P29597 whole entry): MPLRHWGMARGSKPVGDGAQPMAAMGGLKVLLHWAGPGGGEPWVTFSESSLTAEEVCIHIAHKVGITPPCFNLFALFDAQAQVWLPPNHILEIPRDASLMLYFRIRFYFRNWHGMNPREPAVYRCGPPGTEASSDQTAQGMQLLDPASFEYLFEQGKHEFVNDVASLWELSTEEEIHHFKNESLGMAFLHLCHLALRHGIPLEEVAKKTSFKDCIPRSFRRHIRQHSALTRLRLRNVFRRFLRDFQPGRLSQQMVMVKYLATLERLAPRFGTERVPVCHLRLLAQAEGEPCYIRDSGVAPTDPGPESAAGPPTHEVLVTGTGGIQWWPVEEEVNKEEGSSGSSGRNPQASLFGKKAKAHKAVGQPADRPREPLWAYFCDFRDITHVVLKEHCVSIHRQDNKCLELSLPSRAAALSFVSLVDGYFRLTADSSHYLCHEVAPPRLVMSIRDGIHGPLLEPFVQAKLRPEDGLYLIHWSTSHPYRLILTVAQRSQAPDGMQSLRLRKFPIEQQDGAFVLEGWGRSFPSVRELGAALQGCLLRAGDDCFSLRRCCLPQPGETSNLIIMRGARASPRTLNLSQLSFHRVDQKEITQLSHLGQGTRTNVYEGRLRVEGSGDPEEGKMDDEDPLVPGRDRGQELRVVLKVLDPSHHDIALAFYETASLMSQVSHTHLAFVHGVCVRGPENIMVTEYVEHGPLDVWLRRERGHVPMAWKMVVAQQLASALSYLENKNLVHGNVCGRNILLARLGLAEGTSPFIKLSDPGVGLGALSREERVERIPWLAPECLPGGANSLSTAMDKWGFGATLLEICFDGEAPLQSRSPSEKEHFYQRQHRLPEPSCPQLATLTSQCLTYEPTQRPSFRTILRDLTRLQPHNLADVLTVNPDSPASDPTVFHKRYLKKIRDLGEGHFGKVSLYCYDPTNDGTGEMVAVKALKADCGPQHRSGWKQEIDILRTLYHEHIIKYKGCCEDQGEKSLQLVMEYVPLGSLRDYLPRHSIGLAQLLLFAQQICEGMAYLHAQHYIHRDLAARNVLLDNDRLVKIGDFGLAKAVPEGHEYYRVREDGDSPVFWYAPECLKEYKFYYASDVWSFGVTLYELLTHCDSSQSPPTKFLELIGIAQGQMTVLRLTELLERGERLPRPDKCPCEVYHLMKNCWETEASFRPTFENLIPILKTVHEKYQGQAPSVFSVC
T1 sequence (P23443 whole entry): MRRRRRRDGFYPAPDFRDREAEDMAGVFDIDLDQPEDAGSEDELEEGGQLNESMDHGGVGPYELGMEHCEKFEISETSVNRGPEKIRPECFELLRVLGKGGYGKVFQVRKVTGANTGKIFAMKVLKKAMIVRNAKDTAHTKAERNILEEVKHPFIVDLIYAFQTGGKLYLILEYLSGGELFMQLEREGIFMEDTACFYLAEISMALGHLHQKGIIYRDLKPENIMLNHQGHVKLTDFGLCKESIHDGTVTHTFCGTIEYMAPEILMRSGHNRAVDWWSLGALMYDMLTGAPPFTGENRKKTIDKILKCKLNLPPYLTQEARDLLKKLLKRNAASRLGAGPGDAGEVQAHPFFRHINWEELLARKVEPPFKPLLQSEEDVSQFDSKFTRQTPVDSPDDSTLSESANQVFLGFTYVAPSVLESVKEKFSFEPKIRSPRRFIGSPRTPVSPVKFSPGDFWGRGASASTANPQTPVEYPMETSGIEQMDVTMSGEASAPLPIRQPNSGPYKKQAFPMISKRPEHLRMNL
Sequence of PRKAA1 (Q13131 whole entry): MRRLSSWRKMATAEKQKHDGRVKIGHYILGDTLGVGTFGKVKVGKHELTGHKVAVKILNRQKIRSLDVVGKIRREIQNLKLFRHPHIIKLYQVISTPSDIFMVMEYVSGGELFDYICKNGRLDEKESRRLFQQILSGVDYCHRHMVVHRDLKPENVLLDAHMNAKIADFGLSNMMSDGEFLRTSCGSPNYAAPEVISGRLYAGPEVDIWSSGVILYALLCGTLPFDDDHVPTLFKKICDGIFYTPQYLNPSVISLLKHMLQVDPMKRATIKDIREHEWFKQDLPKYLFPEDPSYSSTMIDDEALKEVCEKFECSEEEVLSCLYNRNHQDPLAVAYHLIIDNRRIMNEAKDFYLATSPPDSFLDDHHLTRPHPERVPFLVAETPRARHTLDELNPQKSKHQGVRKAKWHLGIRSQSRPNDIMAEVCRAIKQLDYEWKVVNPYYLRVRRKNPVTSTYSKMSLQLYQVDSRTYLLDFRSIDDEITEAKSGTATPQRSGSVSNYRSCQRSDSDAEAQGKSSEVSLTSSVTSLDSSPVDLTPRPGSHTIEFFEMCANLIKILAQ
Sequence of PRKAA1 (P54619 whole entry partner): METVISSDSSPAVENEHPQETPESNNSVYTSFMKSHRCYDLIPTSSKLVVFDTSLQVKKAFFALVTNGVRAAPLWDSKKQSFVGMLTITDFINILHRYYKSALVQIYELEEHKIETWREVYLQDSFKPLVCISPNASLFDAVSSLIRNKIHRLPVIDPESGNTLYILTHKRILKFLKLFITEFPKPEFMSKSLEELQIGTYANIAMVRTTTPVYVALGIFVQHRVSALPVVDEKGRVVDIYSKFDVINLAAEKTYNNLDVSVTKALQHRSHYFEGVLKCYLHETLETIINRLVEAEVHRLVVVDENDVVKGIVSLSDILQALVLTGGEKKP
Sequence of PRKAA1 (Q9Y478 whole entry partner): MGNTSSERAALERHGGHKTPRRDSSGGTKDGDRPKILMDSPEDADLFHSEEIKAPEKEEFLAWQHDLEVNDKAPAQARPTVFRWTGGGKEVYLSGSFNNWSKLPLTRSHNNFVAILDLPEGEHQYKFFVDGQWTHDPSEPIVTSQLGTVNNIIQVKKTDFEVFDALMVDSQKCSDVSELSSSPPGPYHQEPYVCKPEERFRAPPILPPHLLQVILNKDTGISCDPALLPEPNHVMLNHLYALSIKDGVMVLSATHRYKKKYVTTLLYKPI
Sequence of EphA7 (Q15375 whole entry): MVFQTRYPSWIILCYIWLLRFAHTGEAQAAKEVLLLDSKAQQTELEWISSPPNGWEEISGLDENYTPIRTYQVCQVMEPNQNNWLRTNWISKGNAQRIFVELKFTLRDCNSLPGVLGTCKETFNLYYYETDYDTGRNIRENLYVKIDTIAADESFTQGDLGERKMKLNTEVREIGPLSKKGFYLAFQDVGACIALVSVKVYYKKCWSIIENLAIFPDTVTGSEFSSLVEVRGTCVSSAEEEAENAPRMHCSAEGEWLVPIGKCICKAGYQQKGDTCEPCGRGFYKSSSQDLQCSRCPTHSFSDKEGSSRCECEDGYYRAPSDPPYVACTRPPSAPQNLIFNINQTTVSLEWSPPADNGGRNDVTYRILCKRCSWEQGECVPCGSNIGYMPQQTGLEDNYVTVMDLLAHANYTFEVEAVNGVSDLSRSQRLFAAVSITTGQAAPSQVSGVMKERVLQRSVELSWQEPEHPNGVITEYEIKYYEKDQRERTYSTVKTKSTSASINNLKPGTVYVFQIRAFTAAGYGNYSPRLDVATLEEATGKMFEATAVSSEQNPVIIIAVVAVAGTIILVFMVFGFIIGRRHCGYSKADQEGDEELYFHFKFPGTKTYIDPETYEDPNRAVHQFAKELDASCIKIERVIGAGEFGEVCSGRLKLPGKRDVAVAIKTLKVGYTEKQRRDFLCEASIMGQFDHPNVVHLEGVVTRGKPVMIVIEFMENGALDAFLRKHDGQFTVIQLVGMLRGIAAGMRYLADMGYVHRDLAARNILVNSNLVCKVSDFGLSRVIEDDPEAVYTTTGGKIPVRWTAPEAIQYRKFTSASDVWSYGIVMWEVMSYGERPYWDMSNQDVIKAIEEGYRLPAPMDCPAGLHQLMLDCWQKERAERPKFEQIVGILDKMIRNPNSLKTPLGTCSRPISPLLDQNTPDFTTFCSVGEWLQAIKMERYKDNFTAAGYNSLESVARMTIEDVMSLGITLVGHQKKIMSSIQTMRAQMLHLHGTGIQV
T2 sequence (P15056 whole entry): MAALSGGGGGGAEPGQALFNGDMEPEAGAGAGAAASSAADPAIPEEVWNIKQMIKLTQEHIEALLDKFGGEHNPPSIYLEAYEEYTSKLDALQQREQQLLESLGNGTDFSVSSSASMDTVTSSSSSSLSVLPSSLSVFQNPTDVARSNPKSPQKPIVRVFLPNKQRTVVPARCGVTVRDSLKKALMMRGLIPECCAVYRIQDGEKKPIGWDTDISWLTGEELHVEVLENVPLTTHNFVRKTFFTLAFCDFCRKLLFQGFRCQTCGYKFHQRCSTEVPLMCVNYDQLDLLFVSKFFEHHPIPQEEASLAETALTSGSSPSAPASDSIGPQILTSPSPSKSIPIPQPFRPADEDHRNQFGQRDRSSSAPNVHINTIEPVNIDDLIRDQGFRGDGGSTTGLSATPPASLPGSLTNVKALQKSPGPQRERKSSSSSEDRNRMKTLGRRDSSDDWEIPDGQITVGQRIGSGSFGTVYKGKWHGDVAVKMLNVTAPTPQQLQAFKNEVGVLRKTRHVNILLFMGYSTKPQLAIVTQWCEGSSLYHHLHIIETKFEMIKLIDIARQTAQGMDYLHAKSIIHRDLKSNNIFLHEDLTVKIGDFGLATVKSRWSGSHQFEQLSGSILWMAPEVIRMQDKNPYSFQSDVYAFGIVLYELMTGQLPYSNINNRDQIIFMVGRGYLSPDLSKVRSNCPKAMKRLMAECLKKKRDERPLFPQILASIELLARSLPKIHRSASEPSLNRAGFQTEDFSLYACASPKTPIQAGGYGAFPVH

For orientation: inhibition means the relative decrease from the control value, in per cent. On to `CCOC(=O)Nc1cccc2c(Oc3ncccc3-c3ccnc(N[C@H]4CCCNC4)n3)c(C)ccc12` [G-1749], for which the inhibition at 1 µM at TYK2 was -3%; on p70S6K it was 2.5%; on B-Raf, 9.5%; on Met, 4%; on CDK2/cyclinA it was 6.5%; on NEK1, 0.5%. In addition, the inhibition at 1 µM on PRKAA1 is 0%; on PKA, -9%; at EphA7, 9.5%; on ROCK1 it was 3.5%; on IRAK4, 8%.
As to `CC#CC(=O)Nc1cccc2c(Oc3ncccc3-c3ccnc(N[C@H]4CCCNC4)n3)c(C)ccc12` [G-7658], the inhibition at 1 µM on TYK2 is -2%; at p70S6K, -1%; on B-Raf, 5.5%; at Met it was 5%; at CDK2/cyclinA it was 6%; at NEK1 it was 3%. Also, the inhibition at 1 µM at PRKAA1 was 12%; on PKA, -8%; on EphA7, -1%; at ROCK1, 0.5%; on IRAK4 it was -1%.
As for `O=c1cc(-c2n[nH]c3ncc(-c4c(F)cccc4F)cc23)nc(N2CCC(O)CC2)[nH]1` [G-9807], the inhibition at 1 µM on TYK2 came out at 84.5%; on p70S6K, 88.7%; at B-Raf, 81.2%; at Met, 88.8%; on CDK2/cyclinA it was 100%; at NEK1 it was 90.2%. Besides, the inhibition at 1 µM stood at 96.2% at PRKAA1; 43% at PKA; 84.2% on EphA7; 94.6% on ROCK1; 96.3% at IRAK4.
